Assay results taken from ChEMBL document CHEMBL4229416, “Identification of PKMYT1 inhibitors by screening the GSK published protein kinase inhibitor set I and II” (Bioorg Med Chem, 2018).
Values belong to the compound of their own block, whether it stands above or below them. Active and inactive are the calls of the source. No cut-off for these calls is given here.

Key:
[1] = molecular target: T1, Membrane-associated tyrosine- and threonine-specific cdc2-inhibitory kinase (Homo sapiens, UniProt Q99640); assay: Inhibition of human full length PKMYT1 expressed in HEK293 cells using EFS (247 to 259 residues) as substrate after 1 hr by fluorescence polarization immunoasay
T1 sequence (Q99640 whole entry): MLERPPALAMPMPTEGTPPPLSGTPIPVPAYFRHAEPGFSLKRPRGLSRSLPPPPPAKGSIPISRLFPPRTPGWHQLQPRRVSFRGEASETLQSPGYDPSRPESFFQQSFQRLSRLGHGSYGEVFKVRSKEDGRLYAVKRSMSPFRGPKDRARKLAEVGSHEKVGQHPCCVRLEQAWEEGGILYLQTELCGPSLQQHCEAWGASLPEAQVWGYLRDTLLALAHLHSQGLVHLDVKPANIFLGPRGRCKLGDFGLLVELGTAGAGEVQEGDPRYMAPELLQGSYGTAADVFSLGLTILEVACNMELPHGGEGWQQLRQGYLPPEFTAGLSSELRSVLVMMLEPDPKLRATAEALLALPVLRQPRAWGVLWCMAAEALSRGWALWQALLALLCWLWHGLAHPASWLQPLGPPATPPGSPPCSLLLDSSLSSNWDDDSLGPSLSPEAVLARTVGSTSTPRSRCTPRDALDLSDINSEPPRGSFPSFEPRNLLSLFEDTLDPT

[2] = molecular target: T1, Membrane-associated tyrosine- and threonine-specific cdc2-inhibitory kinase; assay: Inhibition of N-[3',6'-dihydroxy-3-oxo-3H-spiro(2-benzofuran-1,9'-xanthen)-5-yl]-N'-[2-(4-{4-[N-(2-chloro-6-methylphenyl)-5-carboxamido]-thiazol-2-yl})-amino-2-methyl-pyrimid-6-yl)piperazinyl]-ethyl]thiourea binding to human PKMYT1 kinase doamin expressed in Escherichia coli BL21 after 120 mins by fluorescence polarization asay
[3] = molecular target: T2, Membrane-associated tyrosine- and threonine-specific cdc2-inhibitory kinase (Homo sapiens) (UniProt Q99640); assay: Inhibition of human full length PKMYT1 expressed in HEK293 cells assessed as decrease in GST-tagged Cdk1 phosphorylation at tyrosine 15 at 5 to 20 uM after 1 hr by Western blot method relative to control; format: cell-based
T2 sequence (whole entry): T1 sequence (Q99640 whole entry)

[4] = molecular target: T2, Membrane-associated tyrosine- and threonine-specific cdc2-inhibitory kinase (Homo sapiens); assay: Inhibition of PKMYT1 in human HT29 cells assessed as decrease in Cdk1 phosphorylation at tyrosine 15 at 4 uM after 24 hrs by Western blot method; format: cell-based

SMILES: COc1cc2ncnc(Nc3cccc(Cl)c3)c2cc1OC [TYRPHOSTIN AG-1478]
IC50 [1]: 19600 nM
Ki [1]: 1870 nM
IC50 [2]: 55000 nM
Ki [2]: 26200 nM

SMILES: Cc1cc(O)cc(Nc2ccnc3cc(-c4ccccn4)ccc23)c1
IC50 [1]: 543 nM
Ki [1]: 51.7 nM
IC50 [2]: 9430 nM
Ki [2]: 6150 nM
inhibition [3]: Active
inhibition [4]: Active

SMILES: Cc1cc(O)cc(C)c1/C=C/c1cncc(C(N)=O)c1 [GW435821X]
IC50 [1]: 14500 nM
Ki [1]: 1380 nM
IC50 [2]: 876 nM
Ki [2]: 522 nM
inhibition [3]: Active

SMILES: O=C(Nc1cccc(-c2nn3ncccc3c2-c2ccnc(Nc3cccnc3)n2)c1)c1c(F)cccc1F
IC50 [1]: 7560 nM
Ki [1]: 720 nM
IC50 [2]: 18900 nM
Ki [2]: 14700 nM
inhibition [3]: Active

SMILES: Oc1cccc(Nc2ccnc3cc(-c4ccncc4)ccc23)c1
IC50 [1]: 706 nM
Ki [1]: 67.2 nM
IC50 [2]: 332 nM
Ki [2]: 201 nM
inhibition [3]: Active

SMILES: NC(=O)c1cc(-c2ccncc2)cc(-c2ccccc2)c1N [GSK-625137A]
IC50 [1]: 58000 nM
Ki [1]: 5520 nM
IC50 [2]: 11400 nM
Ki [2]: 5810 nM
inhibition [3]: Active

Next, values leading:

IC50 [1]: 115 nM
Ki [1]: 10.9 nM
IC50 [2]: 151 nM
Ki [2]: 104 nM
inhibition [3]: Active
inhibition [4]: Active
SMILES: CNC(=O)c1ccccc1Nc1nc(Nc2cccc(CS(C)(=O)=O)c2)ncc1C

IC50 [1]: 109 nM
Ki [1]: 10.4 nM
IC50 [2]: 2700 nM
Ki [2]: 13500 nM
SMILES: Cc1cc(Nc2ncc3cc(-c4c(Cl)cccc4Cl)c(=O)n(C)c3n2)ccc1F

inhibition [3]: Active
SMILES: NC(=O)c1cccc(Nc2nccc(Nc3cccc4[nH]ncc34)n2)c1 [GW782612X]

IC50 [1]: 270 nM
Ki [1]: 25.7 nM
IC50 [2]: 352 nM
Ki [2]: 180 nM
inhibition [3]: Active
inhibition [4]: Active
SMILES: CNC(=O)c1ccccc1Nc1nc(Nc2ccc(N3CCOCC3)cc2)ncc1Cl

IC50 [1]: 8 nM
Ki [1]: 0.8 nM
IC50 [2]: 31.1 nM
Ki [2]: 2 nM
SMILES: CCN(CC)CCOc1ccc(Nc2ncc3cc(-c4c(Cl)cccc4Cl)c(=O)n(C)c3n2)cc1 [PD-0166285]

IC50 [1]: 24 nM
Ki [1]: 2.3 nM
IC50 [2]: 55 nM
Ki [2]: 8.1 nM
SMILES: Cn1c(=O)c(-c2c(Cl)cccc2Cl)cc2cnc(Nc3ccc(N4CCOCC4)cc3)nc21

inhibition [3]: Active
inhibition [4]: Active
SMILES: COc1cc(Nc2ncc(C#N)c(Nc3ccccc3C(N)=O)n2)ccc1N1CCN(C)CC1
